One assay has as its system A431 cells. The experiment in a line: A431 Cell Growth Inhibition Test (MTT Assay). It counts as cell-based, human. To be noted: Homo sapiens, A-431, 68 h, compound 1 μM, 68 h incubation, read-out: Growth Inhibition Ratio (%). The method, then: A431 Cell Growth Inhibition Test (MTT Assay)
1. Cell strains: A431 (human epithelial […] cell strains);
Culture medium: 45% DMEM, 45% F12+10% FBS;
1. A plate (10 cm) of cells in logarithmic growth phase normally cultured was collected;
2. The culture solution was sucked out. The plate was washed with 5 ml of PBS 1-2 times;
3. PBS was sucked out, and 2 ml of 0.25% pancreatin was added to infiltrate the cells for 1 min;
4. The pancreatin was sucked out, and the culture plate was placed in an incubator. Digestion was carried out for about 15 min at 37° C.;
5. 4 ml of complete culture solution was added in the culture plate to stop the digestion. The cells were carefully scoured with micropipette (1 ml) to give a uniform cell suspension. The suspension was implanted into a 96-well cell culture plate by 2500 cells/100 μl per well. The culture plate was incubated overnight under 5% CO2 at 37° C. In day 2, 100 μl of culture solution comprising the compound was added in each well, and further incubated for 68 h under 5% CO2 at 37° C.
6. The culture solution was sucked out;
7. 100 μl of serum-free culture solution containing 0.5 mg/ml MTT was added in each well, and incubated for 4 h;
8. The culture solution was carefully sucked out;
9. 100 μl of DMSO was added into each well and vibrated to dissolve;
10. OD values were determined at 490 nM.
(§1) 1. Calculation of Relative Inhibition Ratio The inhibition ratio of a compound on cell growth=(PC−n)/(PC−NC)×100%
IC50: concentration of a compound where inhibition ratio was 50%. IC50 values were fitted with Origin7.5.
`N#Cc1cnc2cc(O[C@H]3CCOC3)c(NC(=O)/C=C/CN3CCCCC3)cc2c1Nc1ccc(OCc2ccccn2)c(Cl)c1` [Example 185, (S,E/Z)-N-(4-(3-CHLORO-4-(PYRIDIN-2-YL-METHOXY)PHENYLAMINO)-3-CYANO-7-(TETRAHYDROFURAN-3-YL-OXY)QUINOLIN-6-YL)-4-(PIPERIDIN-1-YL)-BUT-2-ENAMIDE]: the inhibition at 1 µM was 70%. Same read-out and setting: then `CN(C)C/C=C/C(=O)Nc1cc2c(Nc3ccc(OCc4ccccc4)cc3)c(C#N)cnc2cc1O[C@H]1CCOC1` [Example 155, (S,E)-N-(4-(4-(BENZYLOXY)PHENYLAMINO)-3-CYANO-7-(TETRAHYDROFURAN-3-YL-OXY)QUINOLIN-6-YL)-4-(DIMETHYLAMINO)-BUT-2-ENAMIDE], with 82%; and `CN(C)C/C=C/C(=O)Nc1cc2c(Nc3ccc(OCc4ccccc4F)c(Cl)c3)c(C#N)cnc2cc1O[C@H]1CCOC1` [Example 157, (S,E)-N-(4-(4-(2-FLUOROBENZYLOXY)-3-CHLOROPHENYLAMINO)-3-CYANO-7-(TETRAHYDROFURAN-3-YL-OXY)QUINOLIN-6-YL)-4-(DIMETHYLAMINO)-BUT-2-ENAMIDE], with 72%.

Another assay deals with BT-474 cells. Nature of the assay: BT-474 Cell Growth Inhibition Test (SRB Assay). It counts as cell-based, human. To be noted: Homo sapiens, 70 h incubation. The method, then: BT-474 Cell Growth Inhibition Test (SRB Assay)
1. Cell strains: BT-474 (human breast tumor cell strains);
2. SRB: available from Sigmaaldrich, goods number: S9012, lot number: 047K3751. SRB was reserved at the room temperature. 0.4% (w/v) of working solution was formulated with 1% of glacial acetic acid. The solution was reserved at the temperature of 4° C.; anti-tumor compounds; DMSO.
Culture medium (90% EMEM+10% FBS+0.1 mM NEAA, reserved at 4° C.);
1. A plate (10 cm) of cells in logarithmic growth phase normally cultured was collected. The culture solution was sucked out. The plate was washed with 5 mL of PBS 1-2 times;
2. PBS was sucked out, and […] of 0.25% pancreatin was added to infiltrate the cells for 30 s;
3. The pancreatin was sucked out. The culture plate was pleaced in an incubator. Digestion was carried out for about 5 min at 37° C.;
4. 3 mL of complete culture solution was added to the culture plate to stop the digestion. The cells were carefully scoured with micropipette (1 ml) to give a uniform single cell suspension;
5. Cell suspension was counted. The suspension was diluted to 1×10^5/ml. The resulting suspension was developed uniformly on a plate. The plate was incubated under 5% CO2 at 37° C. overnight. In day 2, 80 μL of complete culture medium was added in each well and then 20 μL of culture solution comprising a compound was added. The mixture was incubated for 70 h under 5% CO2 at 37° C.
6. The culture solution was sucked out. 100 uL of TCA fixed cells which were diluted to 10% were added to each well. The plate was kept in a refrigerator for 1 h at 4° C.
7. TCA stationary liquid was sucked out. Each well was washed with 150 μL of ddH2O five times;
8. After the stationary liquid was cleansed, the plate was dried in the air at the room temperature;
9. 60 μL of SRB staining solution was added in each well. The well was stained for 15 min at the room temperature;
10. The SRB staining solution was sucked out. Each well was washed with 150 μL of 1% glacial acetic acid five times;
11. After the SRB staining solution was cleansed, the plate was dried in the air at the room temperature;
12. 100 μL of 10 mM Tris was added in each well. The plate was vibrated to dissolve out SRB;
13. OD values were determined at 570 nM.
as §1
IC50: Concentration of a compound where inhibition ratio was 50%. IC50 values were fitted with Origin7.5.
Turning to `C#Cc1cccc(Nc2c(C#N)cnc3cc(O[C@H]4CCOC4)c(NC(=O)/C=C/CN(CCOC)CCOC)cc23)c1` [Example 191, (S,E)-N-(3-CYANO-4-(3-ETHYNYLPHENYLAMINO)-7-(TETRAHYDROFURAN-3-YL-OXY)QUINOLIN-6-YL)-4-(DIMETHOXYETHYLAMINO)-BUT-2-ENAMIDE], the IC50 (in general, the concentration that gives 50% inhibition) was 390 nM.

The assay is the same for the next values; noted with them: Homo sapiens, BT-474, 70 h, compound 1 μM, 70 h incubation, read-out: Growth Inhibition Ratio (%).
With `CN(C/C=C/C(=O)Nc1cc2c(Nc3ccc(OCc4cccc(F)c4)c(Cl)c3)c(C#N)cnc2cc1O[C@H]1CCOC1)CCO` [Example 198, (S,E)-N-(3-CYANO-4-(4-(3-FLUOROBENZYLOXY)-3-CHLOROPHENYLAMINO)-7-(TETRAHYDROFURAN-3-YL-OXY)QUINOLIN-6-YL)-4-(N-METHYLETHANOLAMINO)-BUT-2-ENAMIDE], the inhibition at 1 µM was found to be 78%.

On to `COCCN(C)C/C=C/C(=O)Nc1cc2c(Nc3ccc(OCc4ccccn4)c(Cl)c3)c(C#N)cnc2cc1O[C@H]1CCOC1` [Example 201, (S,E)-N-(3-CYANO-4-(3-CHLORO-4-(PYRIDIN-2-YL-METHOXY)PHENYLAMINO)-7-(TETRAHYDROFURAN-3-YL-OXY)QUINOLIN-6-YL)-4-(N-METHYLMETHOXY ETHYLAMINO)-BUT-2-ENAMIDE], for which the inhibition at 1 µM is 80%.

Regarding `N#Cc1cnc2cc(O[C@H]3CCOC3)c(NC(=O)/C=C/CNCCCCCCO)cc2c1Nc1ccc(F)c(Cl)c1` [Example 205, (S,E)-N-(3-CYANO-4-(3-CHLORO-4-FLUORO-PHENYLAMINO)-7-(TETRAHYDROFURAN-3-YL-OXY)QUINOLIN-6-YL)-4-(6-HYDROXYHEXYLAMINO)-BUT-2-ENAMIDE], the inhibition at 1 µM turned out to be 75%. Still for that read-out and setting: then `N#Cc1cnc2cc(O[C@H]3CCOC3)c(NC(=O)/C=C/CN(CCO)CCO)cc2c1Nc1ccc(F)c(Cl)c1` [Example 192, (S,E)-N-(3-CYANO-4-(3-CHLORO-4-FLUORO-PHENYLAMINO)-7-(TETRAHYDROFURAN-3-YL-OXY)QUINOLIN-6-YL)-4-(DIETHANOLAMINO)-BUT-2-ENAMIDE], with 85%. On the same count and under the same terms, in the case of `N#Cc1cnc2cc(O[C@H]3CCOC3)c(NC(=O)/C=C/CN3CCCCC3)cc2c1Nc1ccc(OCc2cccc(F)c2)c(Cl)c1` [Example 172, (S,E)-N-(4-(4-(3-FLUOROBENZYLOXY)-3-CHLOROPHENYLAMINO)-3-CYANO-7-(TETRAHYDROFURAN-3-YL-OXY)QUINOLIN-6-YL)-4-(PIPERIDIN-1-YL)-BUT-2-ENAMIDE] it was 62%. `COCCN(C/C=C/C(=O)Nc1cc2c(Nc3ccc(OCc4ccccn4)c(Cl)c3)c(C#N)cnc2cc1O[C@H]1CCOC1)CCOC` [Example 203]: the inhibition at 1 µM stood at 82%.

As to `CCN(CC)C/C=C/C(=O)Nc1cc2c(Nc3ccc(F)c(Cl)c3)c(C#N)cnc2cc1O[C@H]1CCOC1` [Example 168, (S,E)-N-(4-(3-CHLORO-4-FLUOROPHENYLAMINO)-3-CYANO-7-(TETRAHYDROFURAN-3-YL-OXY)QUINOLIN-6-YL)-4-(DIETHYLAMINO)-BUT-2-ENAMIDE], the inhibition at 1 µM was 86%. Take `N#Cc1cnc2cc(O[C@H]3CCOC3)c(NC(=O)/C=C/CN3CCCCC3)cc2c1Nc1ccc(F)c(Cl)c1` [Example 169, (S,E)-N-(4-(3-CHLORO-4-FLUOROPHENYLAMINO)-3-CYANO-7-(TETRAHYDROFURAN-3-YL-OXY)QUINOLIN-6-YL)-4-(PIPERIDIN-1-YL)-BUT-2-ENAMIDE]: the inhibition at 1 µM is 80%.

`CN(C)C/C=C/C(=O)Nc1cc2c(Nc3ccc(OCc4ccccc4C#N)c(Cl)c3)c(C#N)cnc2cc1O[C@H]1CCOC1` [Example 162, (S,E)-N-(4-(4-(2-CYANOBENZYLOXY)-3-CHLOROPHENYLAMINO)-3-CYANO-7-(TETRAHYDROFURAN-3-YL-OXY)QUINOLIN-6-YL)-4-(DIMETHYLAMINO)-BUT-2-ENAMIDE]: the inhibition at 1 µM was 80%.

On to `N#Cc1cnc2cc(O[C@H]3CCOC3)c(NC(=O)/C=C/CN3CCOCC3)cc2c1Nc1ccc(OCc2cccc(F)c2)c(Cl)c1` [Example 173, (S,E)-N-(4-(4-(3-FLUOROBENZYLOXY)-3-CHLOROPHENYLAMINO)-3-CYANO-7-(TETRAHYDROFURAN-3-YL-OXY)QUINOLIN-6-YL)-4-(MORPHOLIN-4-YL)-BUT-2-ENAMIDE], for which the inhibition at 1 µM was found to be 67%. For the molecule `CN(C)C/C=C/C(=O)Nc1cc2c(Nc3cccc(Br)c3)c(C#N)cnc2cc1O[C@H]1CCOC1` [Example 156, (S,E)-N-(4-(3-BROMOPHENYLAMINO)-3-CYANO-7-(TETRAHYDROFURAN-3-YL-OXY)QUINOLIN-6-YL)-4-(DIMETHYLAMINO)-BUT-2-ENAMIDE], the inhibition at 1 µM is 70%. On the same count and under the same terms, then `CCN(CC)C/C=C/C(=O)Nc1cc2c(Nc3ccc(OCc4cccc(F)c4)c(Cl)c3)c(C#N)cnc2cc1O[C@H]1CCOC1` [Example 171, (S,E)-N-(4-(4-(3-FLUOROBENZYLOXY)-3-CHLOROPHENYLAMINO)-3-CYANO-7-(TETRAHYDROFURAN-3-YL-OXY)QUINOLIN-6-YL)-4-(DIETHYLAMINO)-BUT-2-ENAMIDE], with 84%; and `C#Cc1cccc(Nc2c(C#N)cnc3cc(O[C@H]4CCOC4)c(NC(=O)/C=C/CNCc4ccccc4)cc23)c1` [Example 147, (S,E)-N-(3-CYANO-4-(3-ETHYNYLPHENYLAMINO)-7-(TETRAHYDROFURAN-3-YL-OXY)QUINOLIN-6-YL)-4-(BENZYLAMINO)-BUT-2-ENAMIDE], with 75%.

Staying with this assay, now noted: compound 1 μM, 70 h incubation.
`CCN(CC)C/C=C/C(=O)Nc1cc2c(Nc3ccc(OCc4ccccn4)c(Cl)c3)c(C#N)cnc2cc1O[C@H]1CCOC1` [Example 184, (S,E/Z)-N-(4-(3-CHLORO-4-(PYRIDIN-2-YL-METHOXY)PHENYLAMINO)-3-CYANO-7-(TETRAHYDROFURAN-3-YL-OXY)QUINOLIN-6-YL)-4-(DIETHYLAMINO)-BUT-2-ENAMIDE]: the “Growth Inhibition Ratio (%)” value came to 83%. Same read-out and setting: then `N#Cc1cnc2cc(O[C@H]3CCOC3)c(NC(=O)/C=C/CN3CCOCC3)cc2c1Nc1ccc(OCc2ccccn2)c(Cl)c1` [Example 186, (S,E/Z)-N-(4-(3-CHLORO-4-(PYRIDIN-2-YL-METHOXY)PHENYLAMINO)-3-CYANO-7-(TETRAHYDROFURAN-3-YL-OXY)QUINOLIN-6-YL)-4-(MORPHOLIN-4-YL)-BUT-2-ENAMIDE], with 80%.

These data come from patent US9187458B2, “Cyanoquinoline derivatives” (Tianjin Hemay Bio-Tech Co., LTD., priority 2010, dated 2015).
